Experimental data as given in US12077503B2, “Substituted cyclic amides and their use as herbicides” (FMC CORPORATION, priority 2015, dated 2024).
Like-named read-outs stand apart in the source and are kept apart here.

How the values were obtained:
Type in all cases: in vivo
[1] = system: barnyardgrass (Echinochloa crus-galli); test: Test A postemergence; conditions: Echinochloa crus-galli, post-emergence, 240 h; for pest or weed control at 125 g/ha: 125 g ai/ha, read-out: Barnyardgrass plant response rating (0 to 100 scale, 0 no effect, 100 complete control)
In short: (§1)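 Treatment is preemergence as a directed soil spray after planting, or postemergence at the one- to two-leaf stage, with test chemical in a non-phytotoxic solvent mixture plus surfactant. Plants stay in the greenhouse about 10 d before visual injury scoring on a 0 to 100 scale versus untreated controls.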

[2] = system: giant foxtail (Setaria faberii); test: Test A postemergence; conditions: Setaria faberi, post-emergence, 240 h; for pest or weed control at 125 g/ha: 125 g ai/ha
In short: as §1

[3] = system: wheat (Triticum aestivum); test: Test A postemergence; conditions: Triticum aestivum, post-emergence, 240 h; for plant injury at 125 g/ha: 125 g ai/ha
In short: as §1

[4] = system: pigweed (Amaranthus retroflexus); test: Test A postemergence; conditions: Amaranthus retroflexus, post-emergence, 240 h; for pest or weed control at 125 g/ha: 125 g ai/ha
In short: as §1

[5] = system: corn (Zea mays); test: Test A postemergence; conditions: Zea mays, post-emergence, 240 h; for plant injury at 125 g/ha: 125 g ai/ha
In short: as §1

[6] = system: ryegrass, Italian (Italian ryegrass, Lolium multiflorum); test: Test A postemergence; conditions: Lolium multiflorum, post-emergence, 240 h; for pest or weed control at 125 g/ha: 125 g ai/ha
In short: as §1

[7] = system: blackgrass (Alopecurus myosuroides); test: Test A postemergence; conditions: Alopecurus myosuroides, post-emergence, 240 h; for pest or weed control at 125 g/ha: 125 g ai/ha
In short: as §1

[8] = system: Kochia (Kochia scoparia); test: Test A postemergence; conditions: Bassia scoparia, post-emergence, 240 h; for pest or weed control at 125 g/ha: 125 g ai/ha
In short: as §1

[9] = system: Galium (catchweed bedstraw, Galium aparine); test: Test A postemergence; conditions: Galium, post-emergence, 240 h; for pest or weed control at 125 g/ha: 125 g ai/ha
In short: as §1

[10] = system: ragweed (common ragweed, Ambrosia elatior); test: Test A postemergence; conditions: Ambrosia artemisiifolia, post-emergence, 240 h; for pest or weed control at 125 g/ha: 125 g ai/ha
In short: as §1

[11] = system: barnyardgrass (Echinochloa crus-galli); test: Test B flooded paddy test; conditions: Echinochloa crus-galli, Flood, 250 g ai/ha
In short: (§2)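 Compound goes directly into floodwater once pots are flooded 3 cm above soil, targeting plants at two leaves; the water depth is then held for the test duration. Plants sit 13–15 d in a greenhouse and are rated visually, 100 denoting complete control.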

[12] = system: sedge, umbrella (small-flower umbrella sedge, Cyperus difformis); test: Test B flooded paddy test; conditions: Cyperus difformis, Flood, 250 g ai/ha
In short: as §2

[13] = system: ducksalad (Heteranthera limosa); test: Test B flooded paddy test; conditions: Heteranthera limosa, Flood, 250 g ai/ha
In short: as §2

[14] = system: rice (Oryra sativa); test: Test B flooded paddy test; conditions: Oryza sativa, Flood, 250 g ai/ha
In short: as §2

CN1CC[C@H](c2ccc3c(c2)OC(F)(F)O3)[C@@H](C(=O)Nc2cccc(F)c2F)C1=O [Compound 812]
pest or weed control at 125 g/ha ([1]; postemergence, visual injury rating after approximately 10 d): 90% | pest or weed control at 31 g/ha ([1]; Postemergence, 31 g ai/ha, visual injury after approx. 10 d, 0 to 100 scale, 0 no effect, 100 complete control, read-out: Plant response rating, Barnyardgrass): 90% | pest or weed control at 125 g/ha ([2]; postemergence, visual injury rating after approximately 10 d, read-out: Foxtail, Giant plant response rating (0 to 100 scale, 0 no effect, 100 complete control)): 90% | pest or weed control at 31 g/ha ([2]; Postemergence, 31 g ai/ha, visual injury after approx. 10 d, 0 to 100 scale, 0 no effect, 100 complete control, read-out: Plant response rating, Foxtail, Giant): 70% | plant injury at 125 g/ha ([3]; postemergence, visual injury rating after approximately 10 d, read-out: Wheat plant response rating (0 to 100 scale, 0 no effect, 100 complete control)): 60% | plant injury at 31 g/ha ([3]; Postemergence, 31 g ai/ha, visual injury after approx. 10 d, 0 to 100 scale, 0 no effect, 100 complete control, read-out: Plant response rating, Wheat): 20% | pest or weed control at 125 g/ha ([4]; postemergence, visual injury rating after approximately 10 d, read-out: Pigweed plant response rating (0 to 100 scale, 0 no effect, 100 complete control)): 0% | pest or weed control at 31 g/ha ([4]; Postemergence, 31 g ai/ha, visual injury after approx. 10 d, 0 to 100 scale, 0 no effect, 100 complete control, read-out: Plant response rating, Pigweed): 0% | plant injury at 125 g/ha ([5]; postemergence, visual injury rating after approximately 10 d, read-out: Corn plant response rating (0 to 100 scale, 0 no effect, 100 complete control)): 80% | Corn plant response rating (crop injury, 0 = no effect, 100 = complete kill) at 31 g/ha ([5]; Postemergence, 31 g ai/ha, visual injury after approx. 10 d, 0 to 100 scale, 0 no effect, 100 complete control): 30% | pest or weed control at 125 g/ha ([6]; postemergence, visual injury rating after approximately 10 d, read-out: Ryegrass, Italian plant response rating (0 to 100 scale, 0 no effect, 100 complete control)): 30% | pest or weed control at 31 g/ha ([6]; Postemergence, 31 g ai/ha, visual injury after approx. 10 d, 0 to 100 scale, 0 no effect, 100 complete control, read-out: Plant response rating, Ryegrass, Italian): 0% | pest or weed control at 125 g/ha ([7]; postemergence, visual injury rating after approximately 10 d, read-out: Blackgrass plant response rating (0 to 100 scale, 0 no effect, 100 complete control)): 80% | pest or weed control at 31 g/ha ([7]; Postemergence, 31 g ai/ha, visual injury after approx. 10 d, 0 to 100 scale, 0 no effect, 100 complete control, read-out: Plant response rating, Blackgrass): 40% | pest or weed control at 125 g/ha ([8]; postemergence, visual injury rating after approximately 10 d, read-out: Kochia plant response rating (0 to 100 scale, 0 no effect, 100 complete control)): 20% | pest or weed control at 31 g/ha ([8]; Postemergence, 31 g ai/ha, visual injury after approx. 10 d, 0 to 100 scale, 0 no effect, 100 complete control, read-out: Plant response rating, Kochia): 0% | pest or weed control at 125 g/ha ([9]; postemergence, visual injury rating after approximately 10 d, read-out: Galium plant response rating (0 to 100 scale, 0 no effect, 100 complete control)): 50% | pest or weed control at 31 g/ha ([9]; Postemergence, 31 g ai/ha, visual injury after approx. 10 d, 0 to 100 scale, 0 no effect, 100 complete control, read-out: Plant response rating, Galium): 20% | pest or weed control at 125 g/ha ([10]; postemergence, visual injury rating after approximately 10 d, read-out: Ragweed plant response rating (0 to 100 scale, 0 no effect, 100 complete control)): 0% | pest or weed control at 31 g/ha ([10]; Postemergence, 31 g ai/ha, visual injury after approx. 10 d, 0 to 100 scale, 0 no effect, 100 complete control, read-out: Plant response rating, Ragweed): 0% | pest or weed control at 250 g/ha ([11]; scale of 0 to 100 where 0 is no effect and 100 is complete control, read-out: Barnyardgrass plant response rating): 85% | pest or weed control at 250 g/ha ([12]; scale of 0 to 100 where 0 is no effect and 100 is complete control, read-out: Sedge, Umbrella plant response rating): 0% | pest or weed control at 250 g/ha ([13]; scale of 0 to 100 where 0 is no effect and 100 is complete control, read-out: Ducksalad plant response rating): 90% | pest or weed control at 250 g/ha ([14]; scale of 0 to 100 where 0 is no effect and 100 is complete control, read-out: Rice plant response rating): 0%

CN1CC[C@H](c2cccc(C(F)(F)F)c2)[C@@H](C(=O)Nc2ccccc2F)C1=O [Compound 1331]
pest or weed control at 125 g/ha ([1]; Postemergence, visual rating about 10 d after treatment): 90% | pest or weed control at 500 g/ha ([1]; Postemergence, 500 g ai/ha, visual injury, 0 to 100 scale (0 no effect, 100 complete control), approx. 10 d, read-out: Plant response rating, Barnyardgrass): 90% | pest or weed control at 125 g/ha ([2]; Postemergence, visual rating about 10 d after treatment, read-out: Foxtail, Giant plant response rating (0 to 100 scale)): 90% | pest or weed control at 500 g/ha ([2]; Postemergence, 500 g ai/ha, visual injury, 0 to 100 scale (0 no effect, 100 complete control), approx. 10 d, read-out: Plant response rating, Foxtail, Giant): 90% | plant injury at 125 g/ha ([3]; Postemergence, visual rating about 10 d after treatment, read-out: Wheat plant response rating (0 to 100 scale)): 0% | plant injury at 500 g/ha ([3]; Postemergence, 500 g ai/ha, visual injury, 0 to 100 scale (0 no effect, 100 complete control), approx. 10 d, read-out: Plant response rating, Wheat): 50% | pest or weed control at 125 g/ha ([4]; Postemergence, visual rating about 10 d after treatment, read-out: Pigweed plant response rating (0 to 100 scale)): 0% | pest or weed control at 500 g/ha ([4]; Postemergence, 500 g ai/ha, visual injury, 0 to 100 scale (0 no effect, 100 complete control), approx. 10 d, read-out: Plant response rating, Pigweed): 0% | plant injury at 125 g/ha ([5]; Postemergence, visual rating about 10 d after treatment, read-out: Corn plant response rating (0 to 100 scale)): 20% | Corn plant response rating (crop injury, 0 = no effect, 100 = complete kill) at 500 g/ha ([5]; Postemergence, 500 g ai/ha, visual injury, 0 to 100 scale (0 no effect, 100 complete control), approx. 10 d): 70% | pest or weed control at 125 g/ha ([6]; Postemergence, visual rating about 10 d after treatment, read-out: Ryegrass, Italian plant response rating (0 to 100 scale)): 0% | pest or weed control at 500 g/ha ([6]; Postemergence, 500 g ai/ha, visual injury, 0 to 100 scale (0 no effect, 100 complete control), approx. 10 d, read-out: Plant response rating, Ryegrass, Italian): 0% | pest or weed control at 125 g/ha ([7]; Postemergence, visual rating about 10 d after treatment, read-out: Blackgrass plant response rating (0 to 100 scale)): 20% | pest or weed control at 500 g/ha ([7]; Postemergence, 500 g ai/ha, visual injury, 0 to 100 scale (0 no effect, 100 complete control), approx. 10 d, read-out: Plant response rating, Blackgrass): 50% | pest or weed control at 125 g/ha ([8]; Postemergence, visual rating about 10 d after treatment, read-out: Kochia plant response rating (0 to 100 scale)): 0% | pest or weed control at 500 g/ha ([8]; Postemergence, 500 g ai/ha, visual injury, 0 to 100 scale (0 no effect, 100 complete control), approx. 10 d, read-out: Plant response rating, Kochia): 0% | pest or weed control at 125 g/ha ([9]; Postemergence, visual rating about 10 d after treatment, read-out: Galium plant response rating (0 to 100 scale)): 0% | pest or weed control at 500 g/ha ([9]; Postemergence, 500 g ai/ha, visual injury, 0 to 100 scale (0 no effect, 100 complete control), approx. 10 d, read-out: Plant response rating, Galium): 0% | pest or weed control at 125 g/ha ([10]; Postemergence, visual rating about 10 d after treatment, read-out: Ragweed plant response rating (0 to 100 scale)): 0% | pest or weed control at 500 g/ha ([10]; Postemergence, 500 g ai/ha, visual injury, 0 to 100 scale (0 no effect, 100 complete control), approx. 10 d, read-out: Plant response rating, Ragweed): 0% | pest or weed control at 250 g/ha ([11]; 360 h, visually evaluated after 13 to 15 d, read-out: Plant response rating, Barnyardgrass (0 to 100 scale where 0 is no effect and 100 is complete control)): 70% | pest or weed control at 250 g/ha ([12]; 360 h, visually evaluated after 13 to 15 d, read-out: Plant response rating, Sedge, Umbrella (0 to 100 scale where 0 is no effect and 100 is complete control)): 0% | pest or weed control at 250 g/ha ([13]; 360 h, visually evaluated after 13 to 15 d, read-out: Plant response rating, Ducksalad (0 to 100 scale where 0 is no effect and 100 is complete control)): 20% | pest or weed control at 250 g/ha ([14]; 360 h, visually evaluated after 13 to 15 d, read-out: Plant response rating, Rice (0 to 100 scale where 0 is no effect and 100 is complete control)): 0%
